Each molecule was assayed against T1, LCK KD GST (225-509) (Homo sapiens, UniProt P06239) (assay: LCK Homogenous Time Resolved Fluorescent (HTRF) kinase assay).
T1 construct: LCK KD GST (225-509); GST
T1 sequence (P06239 225-509): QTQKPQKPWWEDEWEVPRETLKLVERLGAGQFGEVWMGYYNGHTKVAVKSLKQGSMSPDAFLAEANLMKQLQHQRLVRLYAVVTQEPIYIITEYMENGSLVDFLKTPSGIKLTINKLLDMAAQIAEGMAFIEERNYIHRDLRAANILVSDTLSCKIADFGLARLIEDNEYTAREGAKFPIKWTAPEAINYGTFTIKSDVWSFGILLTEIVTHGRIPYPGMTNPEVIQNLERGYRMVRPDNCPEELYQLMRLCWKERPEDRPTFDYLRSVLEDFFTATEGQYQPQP
Format: biochemical
Experimental: The LCK HTRF assay begins with LCK in the presence of ATP phosphorylating the biotinylated peptide Gastrin. The reaction incubates for 90 min. To quench the assay detection reagents are added which both stop the reaction by diluting out the enzyme and chelating the metals due to the presence of EDTA. Once the detection reagents are added the assay incubates for 30 min to allow for equilibration of the detection reagents.
Buffer conditions are as follows: 50 mM HEPES pH 7.5, 50 mM NaCl, 20 mM MgCl, 5 mM MnCl, 2 mM DTT, 0.05% BSA.
The assay is quenched and stopped with 160 μL of detection reagent. Detection reagents are as follows: Buffer made of 50 mM Tris, pH 7.5, 100 mM NaCl, 3 mM EDTA, 0.05% BSA, 0.1% Tween20.
The assay plate is read in either a Discovery or a RubyStar.
For CNc1ncnc(-c2cccnc2Oc2cccc(NC(=O)c3cccc(C(C)C)c3)c2)n1 [N-(3-((3-(4-(methylamino)-1,3,5-triazin-2-yl)-2-pyridinyl)oxy)phenyl)-3-(1-methylethyl)benzamide], the IC50 was < 1000 nM. For CNc1cc(-c2cccnc2Oc2cc(C(=O)Nc3cccc(C(F)(F)F)c3)ccc2C)ncn1 [4-methyl-3-((3-(6-(methylamino)-4-pyrimidinyl)-2-pyridinyl)oxy)-N-(3-(trifluoromethyl)phenyl)benzamide], the IC50 was < 1000 nM. CNc1ncnc(-c2cccnc2Oc2cc(F)cc(C(=O)Nc3cccc(C(C)C)c3)c2)n1 [3-fluoro-5-((3-(4-(methylamino)-1,3,5-triazin-2-yl)-2-pyridinyl)oxy)-N-(3-(1-methylethyl)phenyl)benzamide] was tested, and the IC50 was < 1000 nM. CNc1nccc(-c2cc(N(C)CCCN(C)C)cnc2Oc2cc(C(=O)Nc3cccc(C(C)C)c3)ccc2C)n1 [3-((5-((3-(dimethylamino)propyl)(methyl)amino)-3-(2-(methylamino)-4-pyrimidinyl)-2-pyridinyl)oxy)-4-methyl-N-(3-(1-methylethyl)phenyl)benzamide] was tested, and the IC50 was < 1000 nM. For CNc1nccc(-c2cccnc2Oc2ccc(NC(=O)Nc3cc(F)cc(C(F)(F)F)c3)cc2C)n1 [N-(3-fluoro-5-(trifluoromethyl)phenyl)-N′-(3-methyl-4-((3-(2-(methylamino)-4-pyrimidinyl)-2-pyridinyl)oxy)phenyl)urea], the IC50 was < 1000 nM. In the case of CNc1nccc(-c2cccnc2Oc2cc(C(=O)Nc3cc(C(C)(C)C)ccc3OC)ccc2C)n1 [N-(5-(1,1-dimethylethyl)-2-(methyloxy)phenyl)-4-methyl-3-((3-(2-(methylamino)-4-pyrimidinyl)-2-pyridinyl)oxy)benzamide], the IC50 is reported as < 1000 nM. COc1cc(-c2cccnc2Oc2cc(C(=O)Nc3cccc(C(F)(F)F)c3)ccc2C)ccn1 [4-methyl-3-((2′-(methyloxy)-3,4′-bipyridin-2-yl)oxy)-N-(3-(trifluoromethyl)phenyl)benzamide] was tested, and the IC50 was < 1000 nM. In the case of CNc1nccc(-c2cccnc2Oc2ccc(NC(=O)Nc3cc(Cl)ccc3C)cc2C)n1 [N-(5-chloro-2-methylphenyl)-N′-(3-methyl-4-((3-(2-(methylamino)-4-pyrimidinyl)-2-pyridinyl)oxy)phenyl)urea], the IC50 is reported as < 1000 nM. For CNc1cc(-c2cccnc2Oc2ccc(F)c(C(=O)Nc3cc(C(C)(C)C)ccc3N(C)CCCN(C)C)c2)ccn1 [N-(2-((3-(dimethylamino)propyl)(methyl)amino)-5-(1,1-dimethylethyl)phenyl)-2-fluoro-5-((2′-(methylamino)-3,4′-bipyridin-2-yl)oxy)benzamide], the IC50 was < 1000 nM. For CC(C)c1cccc(NC(=O)c2ccc(F)c(Nc3ncccc3-c3ncnc(NCCCn4ccnc4)n3)c2)c1 [4-fluoro-3-((3-(4-((3-(1H-imidazol-1-yl)propyl)amino)-1,3,5-triazin-2-yl)-2-pyridinyl)amino)-N-(3-(1-methylethyl)phenyl)benzamide], the IC50 was < 1000 nM. With CNc1nccc(-c2cccnc2Oc2cc(C(=O)Nc3ccc(C(C)C)cc3)ccc2C)n1 [4-methyl-3-((3-(2-(methylamino)-4-pyrimidinyl)-2-pyridinyl)oxy)-N-(4-(1-methylethyl)phenyl)benzamide] the IC50 was < 1000 nM. With CNc1ncnc(-c2cccnc2Oc2cc(C(=O)Nc3cccc(C(F)(F)F)c3C)ccc2C)n1 [4-methyl-3-((3-(4-(methylamino)-1,3,5-triazin-2-yl)-2-pyridinyl)oxy)-N-(2-methyl-3-(trifluoromethyl)phenyl)benzamide] the IC50 was < 1000 nM. With CCOc1cccc(NC(=O)c2ccc(C)c(Nc3ncccc3-c3ccncn3)c2)c1 [N-(3-(ethyloxy)phenyl)-4-methyl-3-((3-(4-pyrimidinyl)-2-pyridinyl)amino)benzamide] the IC50 was < 1000 nM. In the case of CNc1ncnc(-c2cccnc2Oc2ccc(NC(=O)Nc3cc(C(F)(F)F)ccc3N(C)CCCN(C)C)c3ccccc23)n1 [N-(2-((3-(dimethylamino)propyl)(methyl)amino)-5-(trifluoromethyl)phenyl)-N′-(4-((3-(4-(methylamino)-1,3,5-triazin-2-yl)-2-pyridinyl)oxy)-1-naphthalenyl)urea], the IC50 is reported as < 1000 nM. With COc1ccc(C2CCCCC2)cc1NC(=O)c1ccc(C)c(Oc2ncccc2-c2ncnc(NCCO)n2)c1 [N-(5-cyclohexyl-2-(methyloxy)phenyl)-3-((3-(4-((2-hydroxyethyl)amino)-1,3,5-triazin-2-yl)-2-pyridinyl)oxy)-4-methylbenzamide] the IC50 was < 1000 nM. In the case of CNc1nccc(-c2cccnc2Oc2ccc(NC(=O)Nc3cccc(Cl)c3)cc2C)n1 [N-(3-chlorophenyl)-N′-(3-methyl-4-((3-(2-(methylamino)-4-pyrimidinyl)-2-pyridinyl)oxy)phenyl)urea], the IC50 is reported as < 1000 nM. With CNc1nccc(-c2cccnc2Oc2ccc(NC(=O)Nc3cc(C(F)(F)F)ccc3CN3CCN(C)CC3)cc2C)n1 [N-(3-methyl-4-((3-(2-(methylamino)-4-pyrimidinyl)-2-pyridinyl)oxy)phenyl)-N′-(2-((4-methyl-1-piperazinyl)methyl)-5-(trifluoromethyl)phenyl)urea] the IC50 was < 1000 nM. COc1ccc(C(=O)Nc2cccc(C(F)(F)F)c2)cc1Nc1ncccc1-c1ccncn1 [4-(methyloxy)-3-((3-(4-pyrimidinyl)-2-pyridinyl)amino)-N-(3-(trifluoromethyl)phenyl)benzamide] was tested, and the IC50 was < 1000 nM. In the case of CCN(CC)CCNc1nccc(-c2cccnc2Oc2cc(C(=O)Nc3cc(C(F)(F)F)ccc3N3CCOCC3)ccc2C)n1 [3-((3-(2-((2-(diethylamino)ethyl)amino)-4-pyrimidinyl)-2-pyridinyl)oxy)-4-methyl-N-(2-(4-morpholinyl)-5-(trifluoromethyl)phenyl)benzamide], the IC50 is reported as < 1000 nM. For CNc1nccc(-c2cccnc2Oc2cc(C(=O)Nc3cc(OC[C@H]4CCCN4C)cc(C(F)(F)F)c3)ccc2C)n1 [4-methyl-3-((3-(2-(methylamino)-4-pyrimidinyl)-2-pyridinyl)oxy)-N-(3-((((2R)-1-methyl-2-pyrrolidinyl)methyl)oxy)-5-(trifluoromethyl)phenyl)benzamide], the IC50 was < 1000 nM. For Cc1ccc(C(=O)Nc2cccc(C(F)(F)F)c2)cc1Oc1ncccc1-c1ccncn1 [4-methyl-3-((3-(4-pyrimidinyl)-2-pyridinyl)oxy)-N-(3-(trifluoromethyl)phenyl)benzamide], the IC50 was < 1000 nM. With CNc1nccc(-c2cccnc2Oc2cc(Br)cc(C(=O)Nc3cccc(C(C)C)c3)c2)n1 [3-bromo-5-((3-(2-(methylamino)-4-pyrimidinyl)-2-pyridinyl)oxy)-N-(3-(1-methylethyl)phenyl)benzamide] the IC50 was < 1000 nM. With CNc1nccc(-c2cccnc2Oc2ccc(F)c(C(=O)Nc3cc(C(F)(F)F)cc(Cl)c3N(C)CCCN(C)C)c2)n1 [N-(3-chloro-2-((3-(dimethylamino)propyl)(methyl)amino)-5-(trifluoromethyl)phenyl)-2-fluoro-5-((3-(2-(methylamino)-4-pyrimidinyl)-2-pyridinyl)oxy)benzamide] the IC50 was < 1000 nM. For CNc1nccc(-c2cccnc2Oc2ccc(F)c(C(=O)Nc3cc(C4CC4)ccc3N(C)CCCN(C)C)c2)n1 [N-(5-cyclopropyl-2-((3-(dimethylamino)propyl)(methyl)amino)phenyl)-2-fluoro-5-((3-(2-(methylamino)-4-pyrimidinyl)-2-pyridinyl)oxy)benzamide], the IC50 was < 1000 nM. CNc1ncnc(-c2cccnc2Oc2ccc(F)c(C(=O)Nc3cc(C(C)C)ccc3N(C)CCCN(C)C)c2)n1 [N-(2-((3-(dimethylamino)propyl)(methyl)amino)-5-(1-methylethyl)phenyl)-2-fluoro-5-((3-(4-(methylamino)-1,3,5-triazin-2-yl)-2-pyridinyl)oxy)benzamide] was tested, and the IC50 was < 1000 nM. With CNc1cc(-c2cccnc2Oc2cc(NC(=O)c3cccc(C(C)C)c3)cc(C(F)(F)F)c2)ccn1 [N-(3-((2′-(methylamino)-3,4′-bipyridin-2-yl)oxy)-5-(trifluoromethyl)phenyl)-3-(1-methylethyl)benzamide] the IC50 was < 1000 nM. In the case of CNc1nccc(-c2cccnc2Oc2cc(C(=O)NCc3cccc(C(F)(F)F)c3)ccc2C)n1 [4-methyl-3-((3-(2-(methylamino)-4-pyrimidinyl)-2-pyridinyl)oxy)-N-((3-(trifluoromethyl)phenyl)methyl)benzamide], the IC50 is reported as < 1000 nM. In the case of CNc1nccc(-c2cccnc2Oc2ccc(NC(=O)Nc3cc(Cl)ccc3N(C)[C@@H]3CCN(C)C3)cc2C)n1 [N-(5-chloro-2-(methyl((3R)-1-methyl-3-pyrrolidinyl)amino)phenyl)-N′-(3-methyl-4-((3-(2-(methylamino)-4-pyrimidinyl)-2-pyridinyl)oxy)phenyl)urea], the IC50 is reported as < 1000 nM. For CNc1nccc(-c2cccnc2Oc2ccc(NC(=O)Nc3cc(C)ccc3C)cc2C)n1 [N-(2,5-dimethylphenyl)-N′-(3-methyl-4-((3-(2-(methylamino)-4-pyrimidinyl)-2-pyridinyl)oxy)phenyl)urea], the IC50 was < 1000 nM. CNc1nccc(-c2cccnc2Oc2cc(NC(=O)c3cccc(N(C)C)c3)cc(C(F)(F)F)c2)n1 [3-(dimethylamino)-N-(3-((3-(2-(methylamino)-4-pyrimidinyl)-2-pyridinyl)oxy)-5-(trifluoromethyl)phenyl)benzamide] was tested, and the IC50 was < 1000 nM. In the case of CCNc1ncnc(-c2cccnc2Oc2cc(C(=O)Nc3cc(C4CCCCC4)ccc3OC)ccc2C)n1 [N-(5-cyclohexyl-2-(methyloxy)phenyl)-3-((3-(4-(ethylamino)-1,3,5-triazin-2-yl)-2-pyridinyl)oxy)-4-methylbenzamide], the IC50 is reported as < 1000 nM. CNc1cc(-c2cccnc2Oc2ccc(Cl)c(NC(=O)c3cccc(C(C)C)c3)c2)ccn1 [N-(2-chloro-5-((2′-(methylamino)-3,4′-bipyridin-2-yl)oxy)phenyl)-3-(1-methylethyl)benzamide] was tested, and the IC50 was < 1000 nM.

Reference: patent publication US8476434B2, “Protein kinase modulators and method of use” (Amgen Inc., priority 2004, dated 2013)
